Data: BindingDB's records for doi:10.1021/jm00107a050 (Merck Research Laboratories, 1991)

Target: T1, Dimer of Gag-Pol polyprotein [489-587] (Human immunodeficiency virus 1, UniProt P12497)
T1 construct: 489-587
Test: Protease Inhibition Assay
Details: pH 5.5; 30 °C
Experimental: Sensitivity of HIV-1 protease activity to protease inhibitors was determined by a peptide substrate cleavage assay. Protease products were analyzed on a reverse-phase high-pressure liquid chromatograph.

Compound	IC50 [nM]
CCC(C)C(NC(=O)[C@H](C/C=C/c1ccccc1)C[C@H](O)[C@H](Cc1ccccc1)NC(=O)OC(C)(C)C)C(=O)NCc1nc2ccccc2[nH]1 (stereo partly drawn) [tert-butyl N-[(2S,3S,5R)-5-({1-[(1H-1,3-benzodiazol-2-ylmethyl)carbamoyl]-2-methylbutyl}carbamoyl)-3-hydroxy-1-phenyl-5-[(2E)-3-phenylprop-2-en-1-yl]pentan-2-yl]carbamate]	0.03
CCC(C)C(NC(=O)[C@H](Cc1ccccc1)C[C@H](O)[C@H](Cc1ccccc1)NC(=O)OC(C)(C)C)C(=O)NCc1nc2ccccc2[nH]1 (stereo partly drawn) [tert-butyl N-[(2S,3S,5R)-5-({1-[(1H-1,3-benzodiazol-2-ylmethyl)carbamoyl]-2-methylbutyl}carbamoyl)-5-benzyl-3-hydroxy-1-phenylpentan-2-yl]carbamate]	0.07
